Test [1] has as its system MDA-MB-231. The test can be described thus: Cytotoxicity against human MDA-MB-231 cells assessed as reduction in cell viability by SRB assay. In kind it is functional, cell-based.
Test [2] concerns L02. Description: Cytotoxicity against human L02 cells assessed as reduction in cell viability by SRB assay. The class given is functional, cell-based.
Test [3] deals with H69AR. Description: Cytotoxicity against human H69AR cells assessed as reduction in cell viability by SRB assay. In kind it is functional, cell-based.
The test system of test [4] is K562. Description: Cytotoxicity against human K562 cells assessed as reduction in cell viability by MTT assay. The class given is functional, cell-based.
For test [5], the system named is ASPC1. The test can be described thus: Cytotoxicity against human ASPC1 cells assessed as reduction in cell viability by SRB assay. In kind it is functional, cell-based.
The test system of test [6] is Proteus. The test can be described thus: Antibacterial activity against Proteus species assessed as inhibition of bacterial growth incubated for 18 to 20 hrs by agar dilution method. The class given is functional. Conditions: time 18-20 hrs.
In test [7] the test system is Bacillus cereus. The test can be described thus: Antibacterial activity against Bacillus cereus assessed as inhibition of bacterial growth incubated for 18 to 20 hrs by agar dilution method. In kind it is functional. Conditions: time 18-20 hrs.
Test [8] deals with Escherichia coli. Description: Antibacterial activity against Escherichia coli assessed as inhibition of bacterial growth incubated for 18 to 20 hrs by agar dilution method. In kind it is functional. To be noted: time 18-20 hrs.

Data on five compounds can be found in ChEMBL document CHEMBL5137110, “Production of Multiple Talaroenamines from Penicillium malacosphaerulum via One-Pot/Two-Stage Precursor-Directed Biosynthesis” (J Nat Prod, 2022).

pIC50: −log10 of the molar value. In brackets after ≈: the same amount, converted by molar mass. Structures can show the parent of a compound that is named as a salt.

In the case of `COc1cccc2c1C(=O)c1c(O)c3c(c(O)c1C2=O)C[C@@](O)(C(=O)CO)C[C@@H]3O[C@H]1C[C@H](N)[C@H](O)[C@H](C)O1` [DOXORUBICIN HYDROCHLORIDE], the pIC50 in test [1] was 6.52; in test [2], 6.70; in test [3], 4.82.
Turning to `CC1=CC(=O)[C@@](C)(O)C(=O)/C1=C\Nc1ccc(C(=O)O)cc1`, the pIC50 is 5.07 in test [4]; less than 4.52 in test [1]; 4.79 in test [2]; less than 4.52 in test [5]; 5.02 in test [3].
`CC1=CC(=O)[C@@](C)(O)C(=O)/C1=C\Nc1cccc(C(N)=O)c1`: the pIC50 is 5.66 in test [4]; less than 4.52 in test [1]; 4.77 in test [2]; less than 4.52 in test [5]; less than 4.52 in test [3].
In the case of `CC1=CC(=O)[C@@](C)(O)C(=O)/C1=C\Nc1ccc(F)cc1Br`, the pIC50 in test [4] was 5.55; in test [1], less than 4.52; in test [2] it was 4.68; in test [5] it was less than 4.52; in test [3], less than 4.52.
`CC1=CC(=O)[C@@](C)(O)C(=O)/C1=C\Nc1ccc(Cl)c(Cl)c1`: the MIC in test [6], in test [7] and in test [8] was 16.3 µg/mL (≈ 50 µM) in each case.
